pKi: −log10 of the molar value. Where a name gives a salt, the structure may show the parent alone. Where no end group is shown, it is not given here.
Assays:
[1] = biological target: T1, recombinant human CL receptor/RAMP1 (Homo sapiens, UniProt O60894+Q16602); test: Recombinant Receptor Binding Assay (125I-hCGRP); details: exemplary compounds of the invention
T1 construct: expressed in transfected cells; membranes
Procedure: Recombinant Receptor: Human CL receptor (Genbank accession number L76380) was subcloned into the expression vector pIREShyg2 (BD Biosciences Clontech) as a 5′NheI and 3′ PmeI fragment. Human RAMP 1 (Genbank accession number AJ001014) was subcloned into the expression vector pIRESpuro2 (BD Biosciences Clontech) as a 5′NheI and 3′NotI fragment. HEK 293 cells (human embryonic kidney cells; ATCC #CRL-1573) were cultured in DMEM with 4.5 g/L glucose, 1 mM sodium pyruvate and 2 mM glutamine supplemented with 10% fetal bovine serum (FBS), 100 units/mL penicillin and 100 μg/mL streptomycin, and maintained at 37° C. and 95% humidity. Cells were subcultured by treatment with 0.25% trypsin with 0.1% EDTA in HBSS. Stable cell line generation was accomplished by co-transfecting 10 μg of DNA with 30 μg Lipofectamine 2000 (Invitrogen) in 75 cm^2 flasks. CL receptor and RAMP1 expression constructs were co-transfected in equal amounts. Twenty-four hours after transfection the cells were diluted and selective medium (growth medium+300 μg/mL hygromycin and 1 μg/mL puromycin) was added the following day. A clonal cell line was generated by single cell deposition utilizing a FACS Vantage SE (Becton Dickinson). Growth medium was adjusted to 150 μg/mL hygromycin and 0.5 μg/mL puromycin for cell propagation.
Recombinant Receptor Binding Assay: Cells expressing recombinant human CL receptor/RAMP1 were washed with PBS and harvested in harvest buffer containing 50 mM HEPES, 1 mM EDTA and Complete™ protease inhibitors (Roche). The cell suspension was disrupted with a laboratory homogenizer and centrifuged at 48,000 g to isolate membranes. The pellets were resuspended in harvest buffer plus 250 mM sucrose and stored at −70° C. For binding assays, 20 μg of membranes were incubated in 1 mL binding buffer (10 mM HEPES, pH 7.4, 5 mM MgCl2, and 0.2% BSA) for 3 h at room temperature containing […] ^125I-hCGRP (GE Healthcare) and antagonist. The assay was terminated by filtration through 96-well GFB glass fiber filter plates (PerkinElmer) that had been blocked with 0.05% polyethyleneimine. The filters were washed 3 times with ice-cold assay buffer (10 mM HEPES, pH 7.4, and 5 mM MgCl2). Scintillation fluid was added and the plates were counted on a Topcount (Packard). Non-specific binding was determined and the data analysis was carried out with the apparent dissociation constant (Ki) determined by using a non-linear least squares fitting the bound CPM data to the equation below:
[formula] Where Y is observed CPM bound, Ymax is total bound counts, Ymin is non specific bound counts, (Ymax−Ymin) is specific bound counts, % Imax is the maximum percent inhibition, % I min is the minimum percent inhibition, radiolabel is the probe, and the Kd is the apparent dissociation constant for the radioligand for the receptor as determined by hot saturation experiments.

middle meningeal artery = details: rats, electrical stimulation of the dura mater, prior administration; cited from earlier work
facial blood flow [2] = details: rat, trigeminal ganglion stimulation; cited from earlier work
[3] = tested on: acute attacks of migraine; details: clinical trials; cited from earlier work
[4] = tested on: headache induced by CGRP infusion; details: control group; cited from earlier work
facial blood flow [5] = details: marmoset, electrical stimulation of the trigeminal ganglion; cited from earlier work

T1 sequence (Q16602 23-461): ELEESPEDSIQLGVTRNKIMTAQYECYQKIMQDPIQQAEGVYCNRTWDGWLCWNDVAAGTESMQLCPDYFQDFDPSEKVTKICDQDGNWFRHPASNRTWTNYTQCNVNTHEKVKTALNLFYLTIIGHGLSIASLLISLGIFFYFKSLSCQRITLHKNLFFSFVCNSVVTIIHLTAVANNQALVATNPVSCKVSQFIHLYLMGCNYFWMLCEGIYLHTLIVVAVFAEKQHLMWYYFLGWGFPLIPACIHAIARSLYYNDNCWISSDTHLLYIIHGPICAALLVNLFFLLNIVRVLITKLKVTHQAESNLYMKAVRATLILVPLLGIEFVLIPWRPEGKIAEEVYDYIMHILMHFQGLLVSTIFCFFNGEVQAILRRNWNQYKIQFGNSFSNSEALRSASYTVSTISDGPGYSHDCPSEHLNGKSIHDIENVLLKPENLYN
T1 sequence (O60894 27-148): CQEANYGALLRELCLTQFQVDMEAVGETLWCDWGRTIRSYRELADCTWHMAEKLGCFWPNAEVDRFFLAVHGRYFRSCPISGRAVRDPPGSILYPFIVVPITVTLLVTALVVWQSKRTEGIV

Molecule | pKi [1] | other results
C[C@@H]1[C@H](c2ccccc2)C[C@H](NC(=O)c2ccc3c(c2)C[C@@]2(C3)C(=O)Nc3ncc(C#N)cc32)C(=O)N1CC(F)(F)F [Example 16] | 9.89 | –
CGRP(8-37) (VTHRLAGLLSRSGGVVKNNFVPTNVGSKAF; ends and bridges not checked; UniProt P06881 90-119, looked up, fragment) [a peptide CGRP receptor antagonist] | – | effect on increase in diameter of the middle meningeal artery (middle meningeal artery): blocked; effect on increased facial blood flow (facial blood flow [2]): inhibited
O=C(N[C@@H]1CC[C@@H](c2cccc(F)c2F)CN(CC(F)(F)F)C1=O)N1CCC(n2c(=O)[nH]c3ncccc32)CC1 [telcagepant] | – | effectiveness in treating acute attacks of migraine [3]: antimigraine effectiveness
CC(C)CN1C[C@H](c2cccc(F)c2F)C[C@H](NC(=O)c2ccc3c(c2)C[C@@]2(C3)C(=O)Nc3ncccc32)C1=O [Example 14] | 10.49 | –
O=C(N[C@H]1C[C@@H](c2c(Cl)cccc2Cl)CN(CC(F)(F)F)C1=O)c1ccc2c(c1)C[C@@]1(C2)C(=O)Nc2ncccc21 [Example 9] | 9.62 | –
NCCCC[C@H](NC(=O)[C@@H](Cc1cc(Br)c(O)c(Br)c1)NC(=O)N1CCC(N2Cc3ccccc3NC2=O)CC1)C(=O)N1CCN(c2ccncc2)CC1 [BIBN4096BS] | – | effectiveness in treating acute attacks of migraine [3]: effective in treating acute attacks of migraine; prevention of headache induced by CGRP infusion [4]: able to prevent headache induced by CGRP infusion; effect on increase in facial blood flow (facial blood flow [5]): blocked
O=C(N[C@H]1C[C@@H](c2cc(F)cc(F)c2)CN(CC(F)(F)F)C1=O)c1ccc2c(c1)C[C@@]1(C2)C(=O)Nc2ncccc21 [Example 4] | 9.74 | –

Further lines, with some results ahead:

pKi [1] | Molecule | other results
10.68 | C[C@@H]1[C@H](c2c(F)c(F)cc(F)c2F)C[C@H](NC(=O)c2ccc3c(c2)C[C@@]2(C3)C(=O)Nc3ncncc32)C(=O)N1CC(F)(F)F [Example 20] | –
10.10 | C[C@@H]1[C@H](c2ccccc2)C[C@H](NC(=O)c2ccc3c(c2)C[C@@]2(C3)C(=O)Nc3ncccc32)C(=O)N1CC(F)(F)F [Example 1, (2R)-N-[(3S,5S,6R)-6-Methyl-2-oxo-5-phenyl-1-(2,2,2-trifluoroethyl)piperidin-3-yl]-2′-oxo-1,1′,2′,3-tetrahydrospiro[indene-2,3′-pyrrolo[2,3-b]pyridine]-5-carboxamide] | –
9.77 | C[C@@H]1[C@H](c2cccc(Cl)c2)C[C@H](NC(=O)c2ccc3c(c2)C[C@@]2(C3)C(=O)Nc3ncccc32)C(=O)N1CC(F)(F)F [Example 2, (2R)-N-[(3S,5S,6R)-5-(3-Chlorophenyl)-6-methyl-2-oxo-1-(2,2,2-trifluoroethyl)piperidin-3 yl]-2′-oxo-1,1′,2′,3-tetrahydrospiro[indene-2,3′-pyrrolo[2,3-b]pyridine]-5-carboxamide] | –
10.41 | C[C@@H]1[C@H](c2cc(F)cc(F)c2F)C[C@H](NC(=O)c2ccc3c(c2)C[C@@]2(C3)C(=O)Nc3ncccc32)C(=O)N1CC(F)(F)F [Example 3, (2R)-N-1-[(3S,5S,6R)-6-Methyl-2-oxo-1-(2,2,2-trifluoroethyl)-5-(2,3,5-trifluorophenyl)piperidin-3-yl]-2′-oxo-1,1′,2′,3-tetrahydrospiro[indene-2,3′-pyrrolo[2,3-b]pyridine]-5-carboxamide hydrochloride] | –
10.60 | C[C@@H]1[C@H](c2c(F)ccc(F)c2F)C[C@H](NC(=O)c2ccc3c(c2)C[C@@]2(C3)C(=O)Nc3ncccc32)C(=O)N1CC(F)(F)F [Example 12] | –
10.21 | O=C(N[C@H]1C[C@@H](c2cccc(F)c2F)CN(CC(F)(F)F)C1=O)c1ccc2c(c1)C[C@@]1(C2)C(=O)Nc2ncccc21 [Example 5] | –

Source: patent publication US8883807B2, “Piperidinone carboxamide indane CGRP receptor antagonists” (Merck Sharp & Dohme Corp., priority 2010, dated 2014)
